Measured values published in ChEMBL document CHEMBL6096701 (J Med Chem, 2025).
Activity calls are given as the source filed them. The calls are words filed in the database; no cut-off is given here.

Legend:
[1] = Upregulation of IL-10 level in human CD4+ T cell by flow cytometry analysis; type: functional, cell-based
[2] = target: Cyclin-dependent kinase 8/19 (Homo sapiens, UniProt P49336+Q9BWU1); test: Binding affinity to CDK8/CDK19 complex in human CD4+ T cell assessed as upregulation of IL-10 level; type: cell-based
[3] = Metabolic stability in human hepatocytes assessed as intrinsic clearance by LC-MS/MS analysis; type: ADME, cell-based, Hepatocyte; conditions: read-out: CLH
[4] = target: Serine/threonine-protein kinase SIK3 (Homo sapiens) (UniProt Q9Y2K2); test: Binding affinity to SIK3 (unknown origin) by FRET biochemical assay
Serine/threonine-protein kinase SIK3 (Homo sapiens), sequence (Q9Y2K2 whole entry, looked up): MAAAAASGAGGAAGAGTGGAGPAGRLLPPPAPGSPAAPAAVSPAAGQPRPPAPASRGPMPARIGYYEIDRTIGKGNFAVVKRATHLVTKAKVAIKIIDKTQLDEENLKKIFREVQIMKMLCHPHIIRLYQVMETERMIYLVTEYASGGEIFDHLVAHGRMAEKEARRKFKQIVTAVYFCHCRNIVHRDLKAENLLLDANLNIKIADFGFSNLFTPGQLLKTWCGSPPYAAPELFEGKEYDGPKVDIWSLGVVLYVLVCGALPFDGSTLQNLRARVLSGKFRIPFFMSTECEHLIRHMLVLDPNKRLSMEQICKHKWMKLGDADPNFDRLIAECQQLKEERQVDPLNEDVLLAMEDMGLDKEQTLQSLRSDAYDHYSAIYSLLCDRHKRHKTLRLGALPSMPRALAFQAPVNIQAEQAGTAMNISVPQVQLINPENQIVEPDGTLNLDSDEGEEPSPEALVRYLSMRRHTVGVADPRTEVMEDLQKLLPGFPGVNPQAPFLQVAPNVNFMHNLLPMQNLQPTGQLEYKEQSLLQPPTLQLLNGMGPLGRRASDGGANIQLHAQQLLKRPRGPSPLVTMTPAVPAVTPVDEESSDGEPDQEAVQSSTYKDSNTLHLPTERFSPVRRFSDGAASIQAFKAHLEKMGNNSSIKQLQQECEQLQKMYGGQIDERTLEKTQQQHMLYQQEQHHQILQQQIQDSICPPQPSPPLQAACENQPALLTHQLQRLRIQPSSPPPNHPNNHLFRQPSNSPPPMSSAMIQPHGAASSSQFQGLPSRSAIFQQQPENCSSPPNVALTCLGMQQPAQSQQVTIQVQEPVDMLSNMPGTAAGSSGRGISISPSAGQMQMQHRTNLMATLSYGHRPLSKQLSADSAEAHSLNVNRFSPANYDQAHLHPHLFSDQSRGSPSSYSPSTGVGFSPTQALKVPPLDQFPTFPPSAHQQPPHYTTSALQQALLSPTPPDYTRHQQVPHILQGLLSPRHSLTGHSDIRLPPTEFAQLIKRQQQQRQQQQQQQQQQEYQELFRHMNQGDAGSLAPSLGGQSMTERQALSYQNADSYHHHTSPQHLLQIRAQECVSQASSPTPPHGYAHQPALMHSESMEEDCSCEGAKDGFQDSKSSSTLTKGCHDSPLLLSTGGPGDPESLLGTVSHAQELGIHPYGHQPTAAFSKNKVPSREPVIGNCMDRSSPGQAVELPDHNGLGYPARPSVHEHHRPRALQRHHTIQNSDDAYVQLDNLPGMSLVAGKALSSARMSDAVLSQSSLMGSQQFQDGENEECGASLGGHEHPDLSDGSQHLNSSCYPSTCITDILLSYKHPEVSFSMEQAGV

[5] = target: Serine/threonine-protein kinase SIK2 (Homo sapiens) (UniProt Q9H0K1); test: Binding affinity to SIK2 (unknown origin) by FRET biochemical assay
Serine/threonine-protein kinase SIK2 (Homo sapiens), sequence (Q9H0K1 whole entry, looked up): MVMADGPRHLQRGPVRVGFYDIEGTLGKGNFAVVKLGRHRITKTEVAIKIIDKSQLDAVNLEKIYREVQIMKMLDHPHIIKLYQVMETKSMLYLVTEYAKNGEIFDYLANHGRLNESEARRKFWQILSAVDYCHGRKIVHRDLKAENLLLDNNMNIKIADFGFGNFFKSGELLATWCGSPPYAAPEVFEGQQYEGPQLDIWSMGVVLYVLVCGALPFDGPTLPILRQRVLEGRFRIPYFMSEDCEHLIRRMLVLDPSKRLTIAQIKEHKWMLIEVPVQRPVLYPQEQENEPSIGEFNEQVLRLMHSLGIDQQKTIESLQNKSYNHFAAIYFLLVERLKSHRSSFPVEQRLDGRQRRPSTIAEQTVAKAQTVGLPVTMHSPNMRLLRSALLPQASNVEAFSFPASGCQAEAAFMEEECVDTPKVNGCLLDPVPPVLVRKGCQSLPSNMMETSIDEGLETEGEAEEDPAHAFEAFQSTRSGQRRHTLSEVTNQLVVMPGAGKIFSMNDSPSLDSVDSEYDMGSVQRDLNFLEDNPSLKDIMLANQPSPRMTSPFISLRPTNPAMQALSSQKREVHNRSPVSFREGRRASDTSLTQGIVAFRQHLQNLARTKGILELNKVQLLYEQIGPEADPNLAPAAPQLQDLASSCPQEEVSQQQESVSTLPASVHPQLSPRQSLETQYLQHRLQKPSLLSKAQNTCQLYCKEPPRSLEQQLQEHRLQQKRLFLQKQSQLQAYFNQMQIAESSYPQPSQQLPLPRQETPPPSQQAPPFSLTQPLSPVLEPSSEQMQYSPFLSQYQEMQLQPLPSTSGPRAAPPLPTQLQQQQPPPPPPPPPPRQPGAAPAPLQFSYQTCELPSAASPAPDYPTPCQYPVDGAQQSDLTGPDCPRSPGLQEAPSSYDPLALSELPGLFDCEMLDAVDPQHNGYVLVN

[6] = target: Serine/threonine-protein kinase SIK1 (Homo sapiens) (UniProt P57059); test: Binding affinity to SIK1 (unknown origin) by FRET biochemical assay
[7] = target: Cyclin-dependent kinase 7 (Homo sapiens) (UniProt P50613); test: Binding affinity to CDK7 (unknown origin)
Cyclin-dependent kinase 7 (Homo sapiens), sequence (P50613 whole entry): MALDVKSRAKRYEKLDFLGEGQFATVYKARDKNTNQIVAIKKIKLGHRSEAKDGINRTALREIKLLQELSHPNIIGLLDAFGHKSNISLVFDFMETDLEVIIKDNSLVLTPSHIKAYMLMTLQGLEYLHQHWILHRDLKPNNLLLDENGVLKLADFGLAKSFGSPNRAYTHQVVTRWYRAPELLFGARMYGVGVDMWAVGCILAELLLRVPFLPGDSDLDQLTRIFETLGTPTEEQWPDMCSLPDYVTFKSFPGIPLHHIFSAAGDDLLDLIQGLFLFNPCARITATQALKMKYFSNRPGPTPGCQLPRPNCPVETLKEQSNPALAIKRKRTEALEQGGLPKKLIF

[8] = target: Cyclin-dependent kinase 9 (Homo sapiens) (UniProt P50750); test: Binding affinity to CDK9 (unknown origin)
Cyclin-dependent kinase 9 (Homo sapiens), sequence (P50750 whole entry): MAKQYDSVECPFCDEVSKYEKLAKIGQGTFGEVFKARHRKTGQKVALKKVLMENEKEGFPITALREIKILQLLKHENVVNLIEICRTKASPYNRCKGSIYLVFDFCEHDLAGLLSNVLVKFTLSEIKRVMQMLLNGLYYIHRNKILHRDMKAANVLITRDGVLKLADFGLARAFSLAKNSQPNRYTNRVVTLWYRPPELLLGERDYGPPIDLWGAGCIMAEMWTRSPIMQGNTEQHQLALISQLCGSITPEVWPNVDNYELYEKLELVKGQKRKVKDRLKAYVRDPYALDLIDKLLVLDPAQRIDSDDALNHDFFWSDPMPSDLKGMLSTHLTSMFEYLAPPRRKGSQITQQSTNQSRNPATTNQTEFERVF

[9] = target: Cyclin-dependent kinase 6 (Homo sapiens) (UniProt Q00534); test: Binding affinity to CDK6 (unknown origin)
Cyclin-dependent kinase 6 (Homo sapiens), sequence (Q00534 whole entry): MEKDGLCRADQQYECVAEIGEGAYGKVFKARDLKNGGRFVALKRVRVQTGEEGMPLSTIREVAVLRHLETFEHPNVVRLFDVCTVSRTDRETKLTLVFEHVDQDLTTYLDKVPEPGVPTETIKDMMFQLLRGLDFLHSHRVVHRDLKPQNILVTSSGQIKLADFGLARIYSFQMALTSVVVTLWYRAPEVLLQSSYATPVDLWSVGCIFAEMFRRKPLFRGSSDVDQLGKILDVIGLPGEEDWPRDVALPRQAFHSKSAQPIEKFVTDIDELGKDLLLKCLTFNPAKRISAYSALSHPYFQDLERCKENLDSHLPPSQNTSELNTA

[10] = target: Cyclin-dependent kinase 5 (Homo sapiens) (UniProt Q00535); test: Binding affinity to CDK5 (unknown origin)
Cyclin-dependent kinase 5 (Homo sapiens), sequence (Q00535 whole entry, looked up): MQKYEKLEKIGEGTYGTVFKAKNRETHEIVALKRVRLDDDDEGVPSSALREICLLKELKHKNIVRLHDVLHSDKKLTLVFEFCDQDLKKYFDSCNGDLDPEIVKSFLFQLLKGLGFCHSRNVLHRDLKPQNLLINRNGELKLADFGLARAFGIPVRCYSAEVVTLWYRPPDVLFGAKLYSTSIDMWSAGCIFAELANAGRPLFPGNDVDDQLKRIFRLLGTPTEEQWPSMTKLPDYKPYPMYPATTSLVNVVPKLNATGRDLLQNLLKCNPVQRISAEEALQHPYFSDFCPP

[11] = target: Glycogen synthase kinase-3 beta (Homo sapiens) (UniProt P49841); test: Binding affinity to GSK3beta (unknown origin)
Glycogen synthase kinase-3 beta (Homo sapiens), sequence (P49841 whole entry, looked up): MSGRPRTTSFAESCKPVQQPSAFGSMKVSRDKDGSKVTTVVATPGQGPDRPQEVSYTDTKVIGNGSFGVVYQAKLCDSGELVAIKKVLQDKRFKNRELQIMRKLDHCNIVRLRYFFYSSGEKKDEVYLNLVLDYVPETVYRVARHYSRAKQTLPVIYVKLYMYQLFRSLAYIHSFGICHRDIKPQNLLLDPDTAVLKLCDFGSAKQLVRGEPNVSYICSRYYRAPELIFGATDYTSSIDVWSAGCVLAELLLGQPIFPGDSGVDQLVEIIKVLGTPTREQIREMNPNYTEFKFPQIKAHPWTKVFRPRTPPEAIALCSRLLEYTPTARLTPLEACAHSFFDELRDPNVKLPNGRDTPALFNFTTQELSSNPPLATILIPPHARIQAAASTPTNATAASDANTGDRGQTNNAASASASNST

[12] = target: Glycogen synthase kinase-3 alpha (Homo sapiens) (UniProt P49840); test: Binding affinity to GSK3alpha (unknown origin)
Glycogen synthase kinase-3 alpha (Homo sapiens), sequence (P49840 2-483 limits assumed): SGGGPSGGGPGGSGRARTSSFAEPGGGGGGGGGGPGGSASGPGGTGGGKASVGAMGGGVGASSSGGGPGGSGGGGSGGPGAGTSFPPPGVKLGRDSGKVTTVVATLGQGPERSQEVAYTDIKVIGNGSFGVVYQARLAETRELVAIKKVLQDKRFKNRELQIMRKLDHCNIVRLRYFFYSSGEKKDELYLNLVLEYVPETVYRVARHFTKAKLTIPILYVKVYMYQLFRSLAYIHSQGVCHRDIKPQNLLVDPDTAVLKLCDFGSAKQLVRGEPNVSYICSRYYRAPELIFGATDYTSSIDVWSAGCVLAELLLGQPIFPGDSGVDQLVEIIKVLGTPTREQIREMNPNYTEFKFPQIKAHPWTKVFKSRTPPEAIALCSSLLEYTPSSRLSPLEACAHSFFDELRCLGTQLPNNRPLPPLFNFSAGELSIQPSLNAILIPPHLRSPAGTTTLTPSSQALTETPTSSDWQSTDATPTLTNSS

[13] = target: Cyclin-dependent kinase 2 (Homo sapiens) (UniProt P24941); test: Binding affinity to CDK2 (unknown origin)
[14] = target: Cyclin-dependent kinase 10 (Homo sapiens) (UniProt Q15131); test: Binding affinity to CDK10 (unknown origin)
Cyclin-dependent kinase 10 (Homo sapiens), sequence (Q15131 whole entry): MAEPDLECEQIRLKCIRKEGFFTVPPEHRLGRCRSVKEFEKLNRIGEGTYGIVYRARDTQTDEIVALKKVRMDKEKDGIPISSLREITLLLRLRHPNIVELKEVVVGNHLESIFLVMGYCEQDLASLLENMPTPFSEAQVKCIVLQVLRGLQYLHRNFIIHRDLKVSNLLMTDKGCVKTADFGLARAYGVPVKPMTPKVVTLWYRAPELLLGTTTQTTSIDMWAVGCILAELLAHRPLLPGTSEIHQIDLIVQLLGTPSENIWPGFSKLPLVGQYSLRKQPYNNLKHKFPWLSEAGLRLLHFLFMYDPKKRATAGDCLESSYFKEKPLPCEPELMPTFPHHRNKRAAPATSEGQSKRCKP

Mus musculus [15] = test: Anti-inflammatory activity in LPS-induced male CD-1 mouse acute inflammatory model assessed as peak IL-10 level at 1 mg/kg, sc preincubated for 15 mins followed by LPS stimulation and measured after 2 hrs relative to control; type: functional; conditions: time 135 min, 2.25 h
Mus musculus [16] = test: Anti-inflammatory activity in LPS-induced male CD-1 mouse acute inflammatory model assessed as peak IL-10 level at 50 mg/kg, sc preincubated for 15 mins followed by LPS stimulation and measured after 2 hrs relative to control; type: functional; conditions: time 135 min, 2.25 h
Mus musculus [17] = test: Anti-inflammatory activity in LPS-induced male CD-1 mouse acute inflammatory model assessed as peak IL-10 level at 10 mg/kg, sc preincubated for 15 mins followed by LPS stimulation and measured after 2 hrs relative to control; type: functional; conditions: time 135 min, 2.25 h
Mus musculus [18] = test: Anti-inflammatory activity in LPS-induced male CD-1 mouse acute inflammatory model assessed as effect on IL-10 level at 50 mg/kg, sc preincubated for 15 mins followed by LPS stimulation and measured after 3.5 hrs; type: functional, organism-based; conditions: time 225.0 min
[19] = Upregulation of TNF-alpha level in human CD4+ T cell by flow cytometry analysis; type: functional, cell-based
[20] = Upregulation of IL-10 level in mouse whole blood cell preincubated for 30 mins followed by LPS stimulation and measured after 23 hrs by MSD analysis; type: functional, cell-based
[21] = Upregulation of IL-10 level in human whole blood cell preincubated for 30 mins followed by LPS stimulation and measured after 23 hrs by MSD analysis; type: functional, cell-based

SMILES | EC50 [1] | further results
N#Cc1cc(C(=O)N2CCCC(c3ccnc(N4CCCCC4)n3)C2)c[nH]1 (racemic) | 2000 nM | 
N#Cc1cc(C(=O)N2CCCC(c3ccnc(-n4cccn4)n3)C2)c[nH]1 (racemic) | 9120 nM | 
CO[C@H]1C[C@@H](c2ccnc(N3CC[C@@H](F)C3)n2)CN(C(=O)c2c[nH]c(C#N)c2)C1 | 2400 nM | 
C[C@@H]1CC[C@H](c2ccnc(N3CCCC3)n2)CN1C(=O)c1c[nH]c(C#N)c1 | 33 nM | 
N#Cc1cc(C(=O)N2CCCC(F)(c3ccnc(N4CCCC4)n3)C2)c[nH]1 (racemic) | 676 nM | 
CCc1nccc(C2CCCN(C(=O)c3c[nH]c(C#N)c3)C2)n1 (racemic) | > 25000 nM | 
N#Cc1ncc(C(=O)N2CCOC(c3ccnc(N4CCCC4)n3)C2)s1 (racemic) | > 25000 nM | 
N#Cc1cc(C(=O)N2CCC[C@H](c3ccnc(N4CCC(F)(F)C4)n3)C2)c[nH]1 | 955 nM | 
C[C@@H]1C[C@H](c2ccnc(N3CCCC3)n2)CN(C(=O)c2c[nH]c(C#N)c2)C1 | 251 nM | CLint scaled [3]: 90 mL/min/kg
N#Cc1cc(C(=O)N2CCC[C@H](c3ccnc(N4CC[C@@H](F)C4)n3)C2)c[nH]1 | 178 nM | 
N#Cc1c[nH]c(C(=O)N2CCO[C@H](c3ccnc(N4CCCC4)n3)C2)c1 | 5890 nM | Activity [4]: inactive; Activity [5]: inactive; Activity [6]: inactive; Activity [7]: inactive; Activity [8]: inactive; Activity [9]: inactive; Activity [10]: inactive; Activity [11]: inactive; Activity [12]: inactive; Activity [13]: inactive; Activity [14]: inactive
N#Cc1cc(C(=O)N2CCOC(c3ccnc(N4CCCC4)n3)C2)n[nH]1 (racemic) | > 25000 nM | 
N#Cc1ccc(C(=O)N2CCOC(c3ccnc(N4CCCC4)n3)C2)[nH]1 (racemic) | > 25000 nM | 
C[C@H]1CCCN1c1nccc([C@H]2CCCN(C(=O)c3c[nH]c(C#N)c3)C2)n1 | 339 nM | 
N#Cc1cc(C(=O)N2CCCC(c3cc(N4CCCC4)ncn3)C2)c[nH]1 (racemic) | > 25000 nM | 
N#Cc1c[nH]c(C(=O)N2CCOC(c3ccnc(N4CCCC4)n3)C2)c1 (racemic) | 275 nM | Activity [4]: inactive; Activity [5]: inactive; Activity [6]: inactive; Activity [7]: inactive; Activity [8]: inactive; Activity [9]: inactive; Activity [10]: inactive; Activity [11]: inactive; Activity [12]: inactive; Activity [13]: inactive; Activity [14]: inactive
NC(=O)c1c[nH]c(C(=O)N2CCOC(c3ccnc(N4CCCC4)n3)C2)c1 (racemic) | > 25000 nM | 
Cn1cc(C(=O)N2CCOC(c3ccnc(N4CCCC4)n3)C2)cc1C#N (racemic) | > 25000 nM | 

Continued, in another order:

EC50 [1] | SMILES | further results
437 nM | C[C@@H]1CCN(C(=O)c2c[nH]c(C#N)c2)C[C@H]1c1ccnc(N2CCCC2)n1 | 
> 25000 nM | N#Cc1cc(C(=O)N2CCOC(c3ccnc(N4CCCC4)n3)C2)co1 (racemic) | 
> 25000 nM | N#Cc1coc(C(=O)N2CCOC(c3ccnc(N4CCCC4)n3)C2)c1 (racemic) | 
275 nM | N#Cc1cc(C(=O)N2CCC[C@H](c3ccnc(N4CCCC4)n3)C2)c[nH]1 | EC50 [2]: 275 nM
955 nM | N#Cc1cc(C(=O)N2CCC[C@H](c3ccnc(N4CC[C@H](F)C4)n3)C2)c[nH]1 | 
> 25000 nM | CCN(CC)c1nccc(C2CCCN(C(=O)c3c[nH]c(C#N)c3)C2)n1 (racemic) | 
355 nM | Cc1[nH]c(C#N)cc1C(=O)N1CCCC(c2ccnc(N3CCCC3)n2)C1 (racemic) | 
102 nM | CO[C@@H]1C[C@H](c2ccnc(N3CCCC3)n2)CN(C(=O)c2c[nH]c(C#N)c2)C1 | 
490 nM | Cc1[nH]c(C#N)cc1C(=O)N1CCOC(c2ccnc(N3CCCC3)n2)C1 (racemic) | 
1050 nM | N#Cc1cc(C(=O)N2CCO[C@H](c3ccnc(N4CCCC4)n3)C2)c[nH]1 | 
46 nM | CO[C@@H]1C[C@H](c2ccnc(N3CC[C@@H](F)C3)n2)CN(C(=O)c2c[nH]c(C#N)c2)C1 | Activity (Mus musculus [15]): 150%; Activity (Mus musculus [16]): 500%; Activity (Mus musculus [17]): 176%; Activity (Mus musculus [18]): Active; EC50 [19]: > 25000 nM; EC50 [20]: 63 nM; EC50 [21]: 50 nM
275 nM | N#Cc1cc(C(=O)N2CCC[C@@H](c3ccnc(N4CCCC4)n3)C2)c[nH]1 | EC50 [2]: 6300 nM
> 25000 nM | Cc1cc(C2CCCN(C(=O)c3c[nH]c(C#N)c3)C2)nc(N2CCCC2)n1 (racemic) | 
> 25000 nM | CC(C)COc1nccc(C2CCCN(C(=O)c3c[nH]c(C#N)c3)C2)n1 (racemic) | 
> 25000 nM | N#Cc1cc(C(=O)N2CCCC(c3ncnc(N4CCCC4)n3)C2)c[nH]1 (racemic) | 
263 nM | N#Cc1cc(C(=O)N2C[C@@H](c3ccnc(N4CCCC4)n3)CC(F)(F)C2)c[nH]1 | 
